Data set [1] can be described thus: Physical stability upon exposure to accelerated aging conditions (AAC, 40° C./75% RH), re-analysis by HT-XRPD. Format: physicochemical. The note with it: for Physical stability upon exposure to AAC / Stable during AAC: 40° C./75% RH, 2 days; for Physical stability upon exposure to AAC: HT-XRPD before and after; for Stable during AAC: salt screen solids; for Liquid phase AAC (XRPD form after accelerated aging): solids from evaporated mother liquors of the salt screen; for Liquid phase AAC (XRPD form after accelerated aging) / Solid phase AAC (XRPD form after accelerated aging): 40° C./75% RH for 2 days, HT-XRPD; for Solid phase AAC (XRPD form after accelerated aging): precipitated solids of the salt screen, dried under vacuum at 50° C.

Data set [2] is described as follows: Solubility of salts in water and in 0.2 M phosphate buffer pH 6 at 37° C. after 4 hours (HPLC-DAD). The class given is physicochemical. The note with it: for pH (4 h): pH at end of equilibration. As for the experimental part:
Two sets of solubility experiments were performed. […] In the second set of solubility experiments about 5 mg of the salt was weighed in a standard 1.8 mL HPLC vial. Subsequently, aliquots of 200 μL of aqueous medium were added up to a maximum of 1 mL, while making observations regarding the dissolution behavior of the salts. The vials were left to equilibrate at 37° C. with continuous stirring (see Table 25 for details). After 4 hours the solids were separated from the liquid by centrifugation and the liquid phase was further filtrated through a […] PTFE filter to remove any particulate matter. The concentration of solute was determined by HPLC-DAD analysis. A calibration curve was made from two independent stock solutions of voruciclib prepared in acetonitrile/water. The pH was recorded at the end of the equilibration time.

Where [3] appears, read: 0.2 M phosphate buffer pH 6, 37° C., 4 hours.
The mark [4] stands for this setting: 0.2M phosphate buffer pH 6, 37° C., 4 hours, about 1 mg salt in 1 mL.
Setting [5] is: 0.2M phosphate buffer pH 6, 37° C., 4 hours, about 5 mg salt in 1 mL.
Setting [6] is: 0.2M phosphate buffer pH 6, 37° C., about 1 mg salt in 1 mL.
[7] abbreviates: 0.2M phosphate buffer pH 6, 37° C., about 5 mg salt in 1 mL.
Setting [8] is: water, 37° C., 4 hours, about 1 mg salt in 1 mL.
[9] abbreviates: water, 37° C., 4 hours, about 5 mg salt, up to 1 mL.
Where [10] appears, read: water, 37° C., about 1 mg salt in 1 mL.
[11] abbreviates: water, 37° C., about 5 mg salt, up to 1 mL.

Entries after “also recorded” stand apart in the source; their conditions may differ.

Turning to `CN1CCC(c2c(O)cc(O)c3c(=O)cc(-c4ccc(C(F)(F)F)cc4Cl)oc23)C1CO.O=C(O)c1ccccc1` (centres unmarked) [Ben1], in data set [1], the “Physical stability upon exposure to AAC” value is “physically unstable during exposure to AAC for two days and converted to Ben3”; the “Stable during AAC” value is recorded as “No => Ben3”; the “Liquid phase AAC (XRPD form after accelerated aging)” value (shortened to “Liquid phase AAC”) is “Ben3”.
Consider `CN1CC[C@@H](c2c(O)cc(O)c3c(=O)cc(-c4ccc(C(F)(F)F)cc4Cl)oc23)[C@@H]1CO.O=S(=O)(O)c1ccccc1` [Bes1], for which, in data set [1], the “Physical stability upon exposure to AAC” value was “physically unstable during exposure to AAC and became less crystalline”; the “Stable during AAC” value was “No => Am or”.
For `CN1CCC(c2c(O)cc(O)c3c(=O)cc(-c4ccc(C(F)(F)F)cc4Cl)oc23)C1CO.CN1CCC(c2c(O)cc(O)c3c(=O)cc(-c4ccc(C(F)(F)F)cc4Cl)oc23)C1CO.O=C(OC(C(=O)O)C(OC(=O)c1ccccc1)C(=O)O)c1ccccc1` (centres unmarked) [DiTr1], the “Solubility in phosphate buffer” value in data set [2] (setting [3]) fell in the range of 30 to 40 µg/mL. Moreover, the solubility in data set [2] (setting [4]) is 30 µg/mL; in data set [2] (setting [5]), 40 µg/mL; in data set [2] (setting [8]), 40 µg/mL; in data set [2] (setting [9]) it was 30 µg/mL. Moreover, the “Form (4 h) of residual solid” value in data set [2] (setting [6]), in data set [2] (setting [7]) and in data set [2] (setting [11]) was “DiTr1” in each case. The “pH (4 h)” value in data set [2] (setting [6]) is 6.0; in data set [2] (setting [7]) it was 6.3; in data set [2] (setting [10]) it was 4.0; in data set [2] (setting [11]) it was 3.5. For the same molecule, the “Dissolution behaviour in aqueous media (gelling, wettability)” value in data set [2] (salt screen, water and/or 0.2 M phosphate buffer pH 6) is on record as “poor wettability”. Further, in data set [2] (water, 37° C., 4 hours), the Solubility in water is 30 to 40 µg/mL. For the same molecule, the “Solids recovered after solubility determination in water” value in data set [2] (water, 37° C., 4 hours, XRPD) is “DiTr1 was recovered”. In addition, the “Physical stability upon exposure to AAC” value in data set [1] was “physically stable under AAC; also recorded: physically stable upon exposure to AAC for two days”. Also, the “Solid phase AAC (XRPD form after accelerated aging)” value (“Solid phase AAC” for short) in data set [1] is “DiTr1”. The “Stable during AAC” value in data set [1] is “Yes”.
Consider `CN1CCC(c2c(O)cc(O)c3c(=O)cc(-c4ccc(C(F)(F)F)cc4Cl)oc23)C1CO.O=C(O)C=CC(=O)O` (centres unmarked) [Fum1], for which, in data set [1], the “Solid phase AAC” value is reported as “Fum1” and the “Stable during AAC” value is “Yes”.
As to `N[C@@H](CCC(=O)O)C(=O)O` [Glm0], the “Solid phase AAC” value in data set [1] was “Glm0”.
For the molecule `Br.CN1CCC(c2c(O)cc(O)c3c(=O)cc(-c4ccc(C(F)(F)F)cc4Cl)oc23)C1CO` (centres unmarked) [HBr1], in data set [1], the “Physical stability upon exposure to AAC” value was “physically unstable during exposure to accelerated aging conditions and converted to HBr2”; the “Stable during AAC” value was “No => HBr2”; the “Liquid phase AAC” value was “HBr2”.
For the molecule `CN1CCC(c2c(O)cc(O)c3c(=O)cc(-c4ccc(C(F)(F)F)cc4Cl)oc23)C1CO.CN1CCC(c2c(O)cc(O)c3c(=O)cc(-c4ccc(C(F)(F)F)cc4Cl)oc23)C1CO.O=S(=O)(O)c1cccc2c(S(=O)(=O)O)cccc12` (centres unmarked) [Hemi-napadisylate], in data set [2] (setting [3]), the “Solubility pH 6” value turned out to be 0.02 mg/mL. The Solubility water in data set [2] (water, 37° C., 4 hours) turned out to be 20 µg/mL.
In the case of `CN1CCC(c2c(O)cc(O)c3c(=O)cc(-c4ccc(C(F)(F)F)cc4Cl)oc23)C1CO.O=C(O)CC(O)C(=O)O` (centres unmarked) [Mal1], the “Stable during AAC” value in data set [1] was “Yes”.
Take `CN1CC[C@@H](c2c(O)cc(O)c3c(=O)cc(-c4ccc(C(F)(F)F)cc4Cl)oc23)[C@@H]1CO.CN1CC[C@@H](c2c(O)cc(O)c3c(=O)cc(-c4ccc(C(F)(F)F)cc4Cl)oc23)[C@@H]1CO.O=S(=O)(O)c1cccc2c(S(=O)(=O)O)cccc12` [Nds1a]: in data set [2] (setting [3]), the “Solubility in phosphate buffer” value is 20 µg/mL. Moreover, the solubility in data set [2] (setting [4]) worked out at 20 µg/mL; in data set [2] (setting [5]) it was 20 µg/mL; in data set [2] (setting [8]), 30 µg/mL; in data set [2] (setting [9]), 20 µg/mL. The “Solids recovered / salt dissociation after solubility determination in buffer” value in data set [2] (0.2 M phosphate buffer pH 6, 37° C., 4 hours, XRPD) was “the residual solids were identical to Nds1a”. Besides, the “Form (4 h) of residual solid” value in data set [2] (setting [6]) is reported as “Free”; in data set [2] (setting [7]), “Nds1a”; in data set [2] (setting [11]), “Nds1a”. The “pH (4 h)” value in data set [2] (setting [6]) is listed as 6.0; in data set [2] (setting [7]) it was 5.9; in data set [2] (setting [10]), 4.3; in data set [2] (setting [11]) it was 3.4. For the same molecule, the Solubility in water in data set [2] (water, 37° C., 4 hours) turned out to be 20 µg/mL. Besides, in data set [2] (water, 37° C., 4 hours, XRPD), the “Solids recovered after solubility determination in water” value is given as “the residual solids were identical to Nds1a”. Further, the “Physical stability upon exposure to AAC” value in data set [1] is given as “stable during exposure to AAC for 2 days; also recorded: physically stable upon exposure to AAC for two days”. Further, the “Solid phase AAC” value in data set [1] is “Nds1a”. The “Stable during AAC” value in data set [1] is “Yes”.
With `CN1CC[C@@H](c2c(O)cc(O)c3c(=O)cc(-c4ccc(C(F)(F)F)cc4Cl)oc23)[C@@H]1CO.O=S(=O)(O)O` [Sul1], in data set [1], the “Solid phase AAC” value is on record as “Sul1”, the “Stable during AAC” value is “Yes” and the “Liquid phase AAC” value is given as “Sul1”.
Consider `CN1CCC(c2c(O)cc(O)c3c(=O)cc(-c4ccc(C(F)(F)F)cc4Cl)oc23)C1CO.CN1CCC(c2c(O)cc(O)c3c(=O)cc(-c4ccc(C(F)(F)F)cc4Cl)oc23)C1CO.O=S(=O)(O)O` (centres unmarked) [Sul2], for which, in data set [1], the “Solid phase AAC” value is “Sul2” and the “Stable during AAC” value is “Yes”.
`CN1CCC(c2c(O)cc(O)c3c(=O)cc(-c4ccc(C(F)(F)F)cc4Cl)oc23)C1CO.O=S(=O)(O)O` (centres unmarked) [Sul4]: the “Stable during AAC” value in data set [1] was “Yes”.
As to `CN1CC[C@@H](c2c(O)cc(O)c3c(=O)cc(-c4ccc(C(F)(F)F)cc4Cl)oc23)[C@@H]1CO.O=C(O)c1ccc2ccccc2c1O` [Xin1], in data set [1], the “Physical stability upon exposure to AAC” value was “physically stable during exposure to AAC”, the “Stable during AAC” value was “Yes” and the “Liquid phase AAC” value is “Xin1”.

By solubility is commonly meant the dissolved amount per volume that the medium holds.

The values are drawn from patent US12421216B2, “Voruciclib polymorphs and methods of making and using thereof” (MEI PHARMA, INC., priority 2019, dated 2025).
